Experimental data from PubChem BioAssay AID200 (DTP/NCI, 2004).
Values joined by “and” are separate entries in the source; they are usually repeats but may differ in a detail not shown here. Equal entries are not always repeated. Inconclusive results and toxic doses are left out. Where a SMILES comes first, the peptide text is derived from it.

Tested on: B6C3F1 mice, B16 melanoma ip, median survival T/C
Assay: NCI In Vivo Anticancer Drug Screen. Data for tumor model B16 Melanoma (intraperitoneal) in B6C3F1 mice
Conditions: endpoint: median survival time, schedule: Q01DX009 (ip), higher = longer survival
In short: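 Values are T/C ratios: the measurement in treated animals divided by that in vehicle-treated controls, using survival or tumor size in mice carrying transplantable tumors.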

[1] = dose: 25.0 mg/kg/injection, vehicle: saline with Tween-80
[2] = dose: 50.0 mg/kg/injection, vehicle: saline with Tween-80
[3] = dose: 100.0 mg/kg/injection, vehicle: saline with Tween-80
[4] = dose: 10.0 mg/kg/injection, vehicle: saline
[5] = dose: 20.0 mg/kg/injection, vehicle: saline
[6] = dose: 12.5 mg/kg/injection, vehicle: Klucel (hydroxypropylcellulose) (HPC)
[7] = dose: 50.0 mg/kg/injection, vehicle: Klucel (hydroxypropylcellulose) (HPC)
[8] = dose: 100.0 mg/kg/injection, vehicle: Klucel (hydroxypropylcellulose) (HPC)
[9] = dose: 200.0 mg/kg/injection, vehicle: Klucel (hydroxypropylcellulose) (HPC)
[10] = dose: 5.0 mg/kg/injection, vehicle: saline with Tween-80
[11] = dose: 10.0 mg/kg/injection, vehicle: saline with Tween-80
[12] = dose: 25.0 mg/kg/injection, vehicle: Klucel (hydroxypropylcellulose) (HPC)
[13] = dose: 200.0 mg/kg/injection, vehicle: saline with Tween-80

For `Nc1nc(N)c(N=O)c(Nc2ccc(Br)cc2)n1`, the T/C [1] was 114 % of control, the T/C [2] was 107 % of control and the T/C [3] was 106 % of control.
In the case of `CSCS(=O)C[C@H](CO)NC(=O)/C=C/c1c(C)[nH]c(=O)[nH]c1=O` (stereo partly specified), the T/C (dose: 0.03 mg/kg/injection, vehicle: saline) is reported as 100 % of control and 104 % of control, the T/C (dose: 0.06 mg/kg/injection, vehicle: saline) is reported as 112 % of control and 102 % of control and the T/C (dose: 0.12 mg/kg/injection, vehicle: saline) is reported as 98 % of control and 102 % of control. The T/C (dose: 0.25 mg/kg/injection, vehicle: saline) was 118 % of control and 98 % of control, the T/C (dose: 0.5 mg/kg/injection, vehicle: saline) was 102 % of control and the T/C (dose: 1.0 mg/kg/injection, vehicle: saline) was 98 % of control.
`Cc1cc2c(C(C)C)c(O)c(O)c(C=O)c2c(O)c1-c1c(C)cc2c(C(C)C)c(O)c(O)c(C=O)c2c1O` was tested, and the T/C (dose: 0.38 mg/kg/injection, vehicle: saline with Tween-80) was 97 % of control, the T/C (dose: 0.75 mg/kg/injection, vehicle: saline with Tween-80) was 100 % of control and the T/C (dose: 1.5 mg/kg/injection, vehicle: saline with Tween-80) was 98 % of control. For the same molecule, the T/C (dose: 3.0 mg/kg/injection, vehicle: saline with Tween-80) was 106 % of control.
In the case of `COC(=O)Nc1nc2ccc(C3(c4ccc(F)cc4)OCCO3)cc2[nH]1`, the T/C (dose: 6.25 mg/kg/injection, vehicle: saline with Tween-80) is reported as 93 % of control, the T/C (dose: 12.5 mg/kg/injection, vehicle: saline with Tween-80) is reported as 118 % of control and the T/C (dose: 12.5 mg/kg/injection, vehicle: saline) is reported as 117 % of control. The T/C [2] was 172 % of control.
`NC1C(O)C(O)C(Nc2ncnc3nc[nH]c23)OC1C(O)CO` (stereo unspecified) was tested, and the T/C [4] was 99 % of control, the T/C [5] was 96 % of control and the T/C (dose: 40.0 mg/kg/injection, vehicle: saline) was 94 % of control. For the same molecule, the T/C (dose: 80.0 mg/kg/injection, vehicle: saline) was 106 % of control.
With `CC(C)(C)OC(=O)N1CCCC1C(=O)O` (stereo unspecified) the T/C (dose: 22.5 mg/kg/injection, vehicle: Klucel (hydroxypropylcellulose) (HPC)) was 100 % of control, the T/C (dose: 45.0 mg/kg/injection, vehicle: Klucel (hydroxypropylcellulose) (HPC)) was 102 % of control and the T/C (dose: 90.0 mg/kg/injection, vehicle: Klucel (hydroxypropylcellulose) (HPC)) was 90 % of control.
In the case of `O=S1(=O)CS(=O)(=O)OCCO1`, the T/C (dose: 6.25 mg/kg/injection, vehicle: Klucel (hydroxypropylcellulose) (HPC)) is reported as 111 % of control, the T/C [6] is reported as 153 % of control and 161 % of control and the T/C [7] is reported as 117 % of control.
`CC(C)C(NC(=O)OCC1c2ccccc2-c2ccccc21)C(=O)O` (stereo unspecified) was tested, and the T/C [8] was 91 % of control and the T/C [9] was 91 % of control.
For `Cc1ccc([NH-])c([NH-])c1.[Cl][Pt+2][Cl]`, the T/C (dose: 0.63 mg/kg/injection, vehicle: saline with Tween-80) was 114 % of control, the T/C [10] was 157 % of control and the T/C [11] was 160 % of control.
`CCCCCC[C@H]([C@H](C)O)n1cnc2c(N)ncnc21` was tested, and the T/C [6] was 122 % of control, the T/C [12] was 88 % of control and the T/C [7] was 111 % of control and 92 % of control. The T/C [8] was 84 % of control and 92 % of control and the T/C [9] was 79 % of control.
`N#Cc1ccc(NC(=O)Nc2nccs2)cc1` was tested, and the T/C (dose: 100.0 mg/kg/injection, vehicle: distilled water + Tween-80) was 150 % of control.
With `CCS(=O)(=O)OCCCCOS(=O)(=O)CC` the T/C [1] was 97 % of control and the T/C [2] was 100 % of control.
With `CC1C(=O)c2cc3c(cc2CCN(C)Cc2c1ccc1c2OCO1)OCO3` (stereo unspecified) the T/C [10] was 100 % of control, the T/C [11] was 104 % of control and the T/C (dose: 20.0 mg/kg/injection, vehicle: saline with Tween-80) was 103 % of control.
For `COC(CCC(C)C1OC23CC(OC(=O)CC(C(C)O)OC(=O)CC(O)(O2)C(C)CC3(C)C)C1C)c1cccc(O)c1` (stereo unspecified), the T/C (dose: 12.5 micrograms/kg/injection, vehicle: saline + Tween-80 + alcohol) was 96 % of control, the T/C (dose: 25.0 micrograms/kg/injection, vehicle: saline + Tween-80 + alcohol) was 97 % of control and the T/C (dose: 50.0 micrograms/kg/injection, vehicle: saline + Tween-80 + alcohol) was 104 % of control. The T/C (dose: 100.0 micrograms/kg/injection, vehicle: saline + Tween-80 + alcohol) was 102 % of control.
`CC(=O)NCCSC(=O)C(=O)SCCNC(C)=O` was tested, and the T/C [2] was 88 % of control, the T/C [3] was 102 % of control and the T/C [13] was 87 % of control.
With `CC1=CC2c3cccc4[nH]cc(c34)CC2N(C)C1` (stereo unspecified) the T/C (dose: 2.5 mg/kg/injection, vehicle: suspension in saline) was 103 % of control, the T/C (dose: 5.0 mg/kg/injection, vehicle: suspension in saline) was 101 % of control and the T/C (dose: 10.0 mg/kg/injection, vehicle: suspension in saline) was 101 % of control. The T/C (dose: 20.0 mg/kg/injection, vehicle: suspension in saline) was 95 % of control.
For `CCC(C)C(NC(=O)CN)C(=O)O` (stereo unspecified) (HELM PEPTIDE1{G.[CCC(C)C(N[*:1])C(=O)O]}$$$$V2.0), the T/C (dose: 50.0 mg/kg/injection, vehicle: saline) was 92 % of control, the T/C (dose: 100.0 mg/kg/injection, vehicle: saline) was 92 % of control and the T/C (dose: 200.0 mg/kg/injection, vehicle: saline) was 92 % of control.
In the case of `Nc1nc(-c2cccc(S(=O)(=O)O)c2)c(Br)c(=O)[nH]1`, the T/C [3] is reported as 118 % of control and the T/C [13] is reported as 122 % of control.
In the case of `CCCCC(NC(=O)CNC(=O)OCc1ccccc1)C(=O)O` (stereo unspecified), the T/C [8] is reported as 92 % of control, the T/C [9] is reported as 96 % of control and the T/C (dose: 400.0 mg/kg/injection, vehicle: Klucel (hydroxypropylcellulose) (HPC)) is reported as 92 % of control.
For `COC(=O)C12OCC34C(CC5C(C)=CC(=O)C(O)C5(C)C3C(O)C1O)OC(=O)C(OC(=O)CC(C)C)C24` (stereo unspecified), the T/C (dose: 0.25 mg/kg/injection, vehicle: saline + alcohol) was 164 % of control, the T/C (dose: 0.5 mg/kg/injection, vehicle: saline + alcohol) was 180 % of control and the T/C (dose: 1.0 mg/kg/injection, vehicle: saline + alcohol) was 164 % of control. For the same molecule, the T/C (dose: 2.0 mg/kg/injection, vehicle: saline + alcohol) was 159 % of control.
With `Cc1c2ccccc2cc2cccc[n+]12` the T/C (dose: 2.5 mg/kg/injection, vehicle: saline) was 106 % of control and 107 % of control, the T/C (dose: 5.0 mg/kg/injection, vehicle: saline) was 101 % of control and 104 % of control and the T/C [4] was 102 % of control and 107 % of control. The T/C [5] was 99 % of control and 101 % of control.
For `O=C1C=C(Nc2ccccc2)c2ccccc2C1=O`, the T/C [12] was 104 % of control, the T/C [7] was 96 % of control and the T/C [8] was 91 % of control.
`O=C(CCCCCCC(=O)ON1C(=O)CCC1=O)ON1C(=O)CCC1=O` was tested, and the T/C [1] was 99 % of control, the T/C [2] was 96 % of control and the T/C [3] was 103 % of control.
With `[Cl][Pt+2][Cl].[NH-]CC1(C[NH-])CCC1` the T/C (dose: 0.19 mg/kg/injection, vehicle: suspension in saline) was 107 % of control, the T/C (dose: 0.39 mg/kg/injection, vehicle: suspension in saline) was 114 % of control and the T/C (dose: 0.78 mg/kg/injection, vehicle: suspension in saline) was 123 % of control. The T/C (dose: 1.56 mg/kg/injection, vehicle: suspension in saline) was 151 % of control and the T/C (dose: 3.12 mg/kg/injection, vehicle: suspension in saline) was 167 % of control.
